Key:
[1] = 2.67 g/day for 14 days, patients with a herniated disc; cited from earlier work
[2] = intrathecal injection, diabetic rats; cited from earlier work
[3] = system: noradrenaline release; details: intravenous injection, 1 to 100 mg/kg; cited from earlier work
[4] = system: Lewis lung carcinoma (3LL); test: Pulmonary metastatic invasion; format: in vivo, male C57BL/6 mice; details: for additional benefit in terms of metastatic process: added to the diet depleted of cadaverine, putrescine, spermidine and spermine
Experimental: Cells from Lewis lung carcinoma (3LL) were obtained from the ECACC (European Collection of Cell Cultures) and grafted by intramuscular injection in the hind paws of male C57BL/6 mice by the method described previously (Hergueux J. et al., Exp. […] The grafted mice are distributed randomly in the cages in groups of 5 individuals. […] The metastatic dissemination is expressed as percentage invasion relative to the total surface area of the lungs. The percentage metastatic invasion was measured in the mice of the ten groups described above, each having received different nutrition.

[5] = biological target: T1, ODC (Homo sapiens, UniProt P11926); details: renal cells; cited from earlier work
T1 sequence (P11926 1-461): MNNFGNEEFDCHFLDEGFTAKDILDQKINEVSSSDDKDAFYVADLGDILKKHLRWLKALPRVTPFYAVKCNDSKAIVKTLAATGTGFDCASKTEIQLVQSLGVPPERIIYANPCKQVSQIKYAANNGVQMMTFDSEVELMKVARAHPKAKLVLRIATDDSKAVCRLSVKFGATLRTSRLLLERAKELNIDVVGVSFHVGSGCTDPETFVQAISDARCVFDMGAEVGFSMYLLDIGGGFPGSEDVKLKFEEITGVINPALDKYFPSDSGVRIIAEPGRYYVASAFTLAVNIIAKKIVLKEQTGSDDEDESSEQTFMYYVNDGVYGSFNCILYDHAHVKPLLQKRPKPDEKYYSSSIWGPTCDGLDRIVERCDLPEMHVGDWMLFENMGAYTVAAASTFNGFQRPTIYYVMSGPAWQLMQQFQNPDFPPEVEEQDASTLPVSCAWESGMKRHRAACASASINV

[6] = system: putrescine, spermidine and spermine; test: Tumour levels of polyamines; format: in vivo, male C57BL/6 mice; details: for decrease of the tumour level of putrescine / decrease of the tumour level of spermidine / decrease of the tumour level of spermine: relative to diet containing a normal level of polyamines
Experimental: The level of polyamines is measured in the tumour formed at the site of inoculation of the Lewis carcinoma cells. […] After incubation for at least 16 h at 4° C., the cells are centrifuged for 15 minutes at 3500 rpm at 4° C. The supernatant that contains the polyamines is removed and is used for determination of the polyamines. The polyamines are determined by the method described previously (Seiler N et al., 1996, Cancer Research, 56, 5624-5630). The three principal polyamines present in mammals (putrescine, spermidine and spermine) were determined for the ten groups of mice that had each received different nutrition. The results are illustrated in FIG. 3.

[7] = Weight of the spleen; format: in vivo, male C57BL/6 mice
Description: The animals are euthanized, then the spleen is removed from the mice and weighed using a precision balance. In addition to the ten groups of mice that each received a different diet, as described above, an eleventh group of animals was included for this study. These were male C57BL/6 mice having the same basic physiological characteristics as the mice in the other ten groups but that had not received grafts of Lewis carcinoma cells.

[8] = system: cell lines from hepatocarcinomas; details: in vitro, 10 μm to 1 mM; cited from earlier work
[9] = animals injected with 0.3 nmol; cited from earlier work
[10] = system: Lewis lung carcinoma (3LL); test: Tumour growth (tumour volume), Example 1; format: in vivo, male C57BL/6 mice
Experimental: Male C57BL/6 mice, aged 9 weeks and weighing 20 g (Janvier breeding station, Le Genest St Isle, France), are acclimatized for 1 week before the start of the study. Handling of the animals is carried out in accordance with the ethical directives for experiments and according to the recommendations of the European Biomedical Research Association. Cells from Lewis lung carcinoma (3LL) were obtained from the ECACC (European Collection of Cell Cultures) and grafted by intramuscular injection in the hind paws of male C57BL/6 mice by the method described previously (Hergueux J. et al., Exp. […] The grafted mice are distributed randomly in the cages in groups of 5 individuals. The tumour becomes palpable some days after grafting took place. […] Cancer, 1984, 34(2), 277-281).

[11] = system: Lewis lung carcinoma (3LL); test: Tumour growth (tumour volume) in combination with an anticancer drug, Example 2; format: in vivo, male C57BL/6 mice
Experimental: Male C57BL/6 mice, aged 9 weeks and weighing 20 g (Janvier breeding station, Le Genest St Isle, France), are acclimatized for 1 week before the start of the study. Handling of the animals is carried out in accordance with the ethical directives for experiments and according to the recommendations of the European Biomedical Research Association.
After 20 days, the tumour cells are collected and dispersed in PBS, counted and diluted to reach 0.5×10^6 cells/100 μL, before being grafted in the right hind paw of the mice. The grafted mice are distributed randomly in the cages in groups of 5 individuals.
The tumour becomes palpable some days after the grafting took place. The animals are sacrificed 19 days after grafting the tumour cells.
The treatment is set up 6 days after grafting, when the tumour is palpable, and is administered 7 days a week and comprises the intake ad libitum of the normal nutrition or of the test solutes as well as drinking water.
The animal model (C57BL/6 mouse) and the tumour model (Lewis carcinoma) are described above. The mice are grafted with 0.5×10^6 tumour cells, by intramuscular injection in one of the hind paws.

[12] = depleted diet + agmatine 18.4 mg/kg of food
[13] = depleted diet + agmatine 184 mg/kg of food
[14] = depleted diet + agmatine 1840 mg/kg of food
[15] = cyclophosphamide (CY) 9 mg·kg^−1·week^−1
[16] = cyclophosphamide (CY) 90 mg·kg^−1·week^−1
[17] = tumour, neomycin based on a diet depleted of cadaverine, putrescine, spermidine and spermine

N=C(N)NCCCCN.O=S(=O)(O)O [agmatine sulphate]
perception of pain [1]: attenuated perception of pain

N=C(N)NCCCCN [agmatine]
tactile or thermal allodynia and hyperalgesia [2]: suppresses tactile or thermal allodynia as well as hyperalgesia
blood pressure [3]: decrease in blood pressure
additional benefit in terms of metastatic process [4]: does not appear to bring any additional benefit
inhibition of ODC / synthesis of polyamines [5]: dose-dependent inhibition of ODC
decrease of the tumour level of putrescine [6, 12]: 35%
decrease of the tumour level of spermidine [6, 12]: 10%
decrease of the tumour level of spermine [6, 12]: 31%
decrease of the tumour level of putrescine [6, 13]: 14%
decrease of the tumour level of spermidine [6, 13]: 12%
decrease of the tumour level of spermine [6, 13]: 24%
decrease of the tumour level of putrescine [6, 14]: 50%
decrease of the tumour level of spermidine [6, 14]: 10%
decrease of the tumour level of spermine [6, 14]: 16%
additional effect on the weight of the spleen ([7]; agmatine added to the depleted diet, regardless of the dose): no additional effect
cell cycle [8]: stopping of the cancer cells in phase G2/M of the cell cycle
perception of pain (allodynia) [9]: anti-allodynic effect
increase of the antitumour effect of the diet depleted of cadaverine, putrescine, spermidine and spermine ([10]; agmatine 18.4 mg/kg of food): 8%
increase of the antitumour effect of the diet depleted of cadaverine, putrescine, spermidine and spermine ([10]; agmatine 184 mg/kg of food): 3%
increase of the antitumour effect of the diet depleted of cadaverine, putrescine, spermidine and spermine ([10]; agmatine 1840 mg/kg of food): 13%

O=P1(N(CCCl)CCCl)NCCCO1 (stereo not drawn) [cyclophosphamide]
Monitoring of tumour volume (in cm^3) D0 [11, 15]: 0 cm^3
Monitoring of tumour volume (in cm^3) D0 [11, 16]: 0 cm^3
Monitoring of tumour volume (in cm^3) D2 [11, 15]: 0.08 cm^3
Monitoring of tumour volume (in cm^3) D2 [11, 16]: 0.02 cm^3
Monitoring of tumour volume (in cm^3) D5 [11, 15]: 0.2 cm^3
Monitoring of tumour volume (in cm^3) D5 [11, 16]: 0.05 cm^3
Monitoring of tumour volume (in cm^3) D8 [11, 15]: 0.296 cm^3
Monitoring of tumour volume (in cm^3) D8 [11, 16]: 0.074 cm^3
Monitoring of tumour volume (in cm^3) D10 [11, 15]: 0.64 cm^3
Monitoring of tumour volume (in cm^3) D10 [11, 16]: 0.16 cm^3
Monitoring of tumour volume (in cm^3) D12 [11, 15]: 1.2 cm^3
Monitoring of tumour volume (in cm^3) D12 [11, 16]: 0.3 cm^3
Monitoring of tumour volume (in cm^3) D15 [11, 15]: 2.64 cm^3
Monitoring of tumour volume (in cm^3) D15 [11, 16]: 0.66 cm^3
Monitoring of tumour volume (in cm^3) D18 [11, 15]: 3.0 cm^3
Tumour volume on D18 (% relative to UAR) [11, 15]: −20%
Monitoring of tumour volume (in cm^3) D18 [11, 16]: 0.7 cm^3
Tumour volume on D18 (% relative to UAR) [11, 16]: −81%

neomycin
mean value of pulmonary metastatic invasion ([4]; 19 days after grafting, no agmatine, neomycin where given 2 mg/ml in drinking water): 11%
additional benefit in terms of metastatic process [4]: does not lead to any additional benefit
decrease in metastatic invasion ([4]; relative to mice on a diet containing a normal level of polyamines without antibiotic): 60%
decrease in the level of putrescine ([6]; tumour, based on a normal diet): 17%
effect on the level of spermidine ([6]; tumour, based on a normal diet): no effect
increase in the level of spermine ([6]; tumour, based on a normal diet): 7%
decrease in the level of spermine [6, 17]: 5%
increase in the level of putrescine [6, 17]: 17%
increase in the level of spermidine [6, 17]: 24%
mean value of the weight of the spleen ([7]; grafted mice, 19 days after grafting, no agmatine, neomycin where given 2 mg/ml in drinking water): 151 mg
effect of neomycin on the weight of the spleen ([7]; groups 2, 4 and 6 (normal diet; depleted diet; depleted diet + agmatine 18.4 mg/kg of food)): decrease in the weight of the spleen
effect of neomycin on the weight of the spleen ([7]; groups 8 and 10 (depleted diet + agmatine 184 and 1840 mg/kg of food)): increase in the weight of the spleen
evolution of tumour volume ([10]; neomycin 2 mg/ml in drinking water, diet containing a normal level of polyamines): no effect

— patent US20150005387A1, “COMPOSITION CONTAINING AGMATINE, AND USES THEREOF IN PREPARING DRUGS OR NEUTRACEUTICAL SUBSTANCES” (priority 2012, published 2015)
